Measurements from patent US4064169A, “Bis-(meta-amidinophenoxy)-compounds and pharmacologically acceptable acid addition salts thereof” (Eisai Co., Ltd., priority 1976, dated 1977).
Counter-ions that a name gives are not always drawn. Like-named read-outs stand apart in the source and are kept apart here.

Columns and labels:
Type in all cases: cell-based
fungi of Table 4 = assay: Antifungal test when a serum is added (summary); details: 10% and 30% by volume horse serum
Protocol: (§1) Minimal inhibitory concentration (M.I.C.) was determined by preparing the agar plate medium in the same manner of the preceding pharmacological test 1, except for the addition of the horse serum. The concentration of the component in the medium was finally corrected, so that it may amount to the concentration of the component when the horse serum was not added.

Cryptococcus neoformans = assay: Antifungal test when a serum is added; details: 27° C, read-out: M.I.C. of serum added
Protocol: (§2) Respective agar plates were prepared by dissolving compounds under test in aseptic water to make a two fold dilution series, taking each 1 milliliter of said diluted solutions and 9 ml of Sabouraud medium into a petri dish, and sufficiently admixing the same.
(§3) On the other hand, an inoculum was prepared by cultivating an examined fungus (microorganism) on the Sabouraud slant medium and suspending two loopful of the incubated fungus in 10 ml of sterilized physiological saline water.
(§4) One loopful of the inoculum was streaked on the above-mentioned agar plate. After the agar plate was incubated at a defined temperature for a predetermined period of time to determine the minimal inhibitory concentration (M.I.C.).
as §1
(§5) Incubation temperature: […]

[1] = tested on: Candida albicans AHU 3656; assay: Antifungal test when a serum is added; details: 27° C, read-out: M.I.C. of serum added
Protocol: as §2, §3, §4, §1, §5

[2] = tested on: Candida albicans NAKAGAWA IFM 4017; assay: Antifungal test when a serum is added; details: 27° C, read-out: M.I.C. of serum added
Protocol: as §2, §3, §4, §1, §5

[3] = tested on: Candida albicans IFM 4080; assay: Antifungal test when a serum is added; details: 27° C, read-out: M.I.C. of serum added
Protocol: as §2, §3, §4, §1, §5

Candida utilis AHU 3053 = assay: Antifungal test when a serum is added; details: Williopsis jadinii, 27° C, read-out: M.I.C. of serum added
Protocol: as §2, §3, §4, §1, §5

[4] = tested on: Candida albicans Yu-1200 IFM 4020; assay: Antifungal test when a serum is added; details: 27° C, read-out: M.I.C. of serum added
Protocol: as §2, §3, §4, §1, §5

[5] = tested on: Candida tropicalis AHU 3071; assay: Antifungal test when a serum is added; details: 27° C, read-out: M.I.C. of serum added
Protocol: as §2, §3, §4, §1, §5

[6] = tested on: Candida guilliermondii AHU 3654; assay: Antifungal test when a serum is added; details: Meyerozyma guilliermondii, 27° C, read-out: M.I.C. of serum added
Protocol: as §2, §3, §4, §1, §5

Candida Krusei AHU 3993 = assay: Antifungal test when a serum is added; details: Pichia kudriavzevii, 27° C, read-out: M.I.C. of serum added
Protocol: as §2, §3, §4, §1, §5

[7] = 168 h, 10 % horse serum, 7 days
[8] = 168 h, 30 % horse serum, 7 days

**Q.** With `N=C(N)c1cccc(OCC2CCC(COc3cccc(C(=N)N)c3)CC2)c1` (centres unmarked) [Compound A, 1,4-Bis-(m,m'-amidinophenoxymethyl)-cyclohexane-dihydrochloride] as the molecule, how does the “antifungal activity with serum compared with no serum” value (fungi of Table 4) read?
**A.** nearly same as that when the horse serum was not added

**Q.** And the “difference of antifungal activity with vs without horse serum” value (fungi of Table 4)?
**A.** 1 - 2 dilution step(s)

**Q.** And the MIC (Cryptococcus neoformans; 72 h, 0 % horse serum, 3 days)?
**A.** 3.13 µg/mL

**Q.** And the MIC (Cryptococcus neoformans; 72 h, 10 % horse serum, 3 days)?
**A.** 6.25 µg/mL

**Q.** And the MIC (Cryptococcus neoformans; 72 h, 30 % horse serum, 3 days)?
**A.** 12.5 µg/mL

**Q.** And the MIC (Cryptococcus neoformans; 168 h, 0 % horse serum, 7 days)?
**A.** 3.13 µg/mL

**Q.** And the MIC (Cryptococcus neoformans; [7])?
**A.** 12.5 µg/mL

**Q.** What about the MIC (Cryptococcus neoformans; [8]) of the same molecule?
**A.** 12.5 µg/mL

**Q.** And the MIC ([1]; AHU3656, 72 h, 0 % horse serum, 3 days)?
**A.** 3.13 µg/mL

**Q.** And the MIC ([1]; AHU3656, 72 h, 10 % horse serum, 3 days)?
**A.** 25 µg/mL

**Q.** And the MIC ([1]; AHU3656, 72 h, 30 % horse serum, 3 days)?
**A.** 25 µg/mL

**Q.** And the MIC ([1]; AHU3656, 168 h, 0 % horse serum, 7 days)?
**A.** 6.25 µg/mL

**Q.** And the MIC ([1]; AHU3656, 168 h, 10 % horse serum, 7 days)?
**A.** 25 µg/mL

**Q.** And the MIC ([1]; AHU3656, 168 h, 30 % horse serum, 7 days)?
**A.** 25 µg/mL

**Q.** And the MIC ([2]; 72 h, 0 % horse serum, 3 days)?
**A.** 3.13 µg/mL

**Q.** What about the MIC ([2]; 72 h, 10 % horse serum, 3 days) of the same molecule?
**A.** 25 µg/mL

**Q.** And the MIC ([2]; 72 h, 30 % horse serum, 3 days)?
**A.** 6.25 µg/mL

**Q.** What about the MIC ([2]; 168 h, 0 % horse serum, 7 days) of the same molecule?
**A.** 3.13 µg/mL

**Q.** What about the MIC [2, 7] of the same molecule?
**A.** 25 µg/mL

**Q.** What about the MIC [2, 8] of the same molecule?
**A.** 6.2 µg/mL

**Q.** And the MIC ([3]; IFM4080, 72 h, 0 % horse serum, 3 days)?
**A.** 3.13 µg/mL

**Q.** What about the MIC ([3]; IFM4080, 72 h, 10 % horse serum, 3 days) of the same molecule?
**A.** 12.5 µg/mL

**Q.** What about the MIC ([3]; IFM4080, 72 h, 30 % horse serum, 3 days) of the same molecule?
**A.** 12.5 µg/mL

**Q.** What about the MIC ([3]; IFM4080, 168 h, 0 % horse serum, 7 days) of the same molecule?
**A.** 6.25 µg/mL

**Q.** And the MIC ([3]; IFM4080, 168 h, 10 % horse serum, 7 days)?
**A.** 12.5 µg/mL

**Q.** What about the MIC ([3]; IFM4080, 168 h, 30 % horse serum, 7 days) of the same molecule?
**A.** 12.5 µg/mL

**Q.** What about the MIC (Candida utilis AHU 3053; AHU3053, 72 h, 0 % horse serum, 3 days) of the same molecule?
**A.** 3.13 µg/mL

**Q.** What about the MIC (Candida utilis AHU 3053; AHU3053, 72 h, 10 % horse serum, 3 days) of the same molecule?
**A.** 3.13 µg/mL

**Q.** And the MIC (Candida utilis AHU 3053; AHU3053, 72 h, 30 % horse serum, 3 days)?
**A.** < 0.8 µg/mL

**Q.** What about the MIC (Candida utilis AHU 3053; AHU3053, 168 h, 0 % horse serum, 7 days) of the same molecule?
**A.** 3.13 µg/mL

**Q.** And the MIC (Candida utilis AHU 3053; AHU3053, 168 h, 10 % horse serum, 7 days)?
**A.** 6.25 µg/mL

**Q.** What about the MIC (Candida utilis AHU 3053; AHU3053, 168 h, 30 % horse serum, 7 days) of the same molecule?
**A.** < 0.8 µg/mL

**Q.** And the MIC ([4]; YU1200IFM4020, 72 h, 0 % horse serum, 3 days)?
**A.** < 1.56 µg/mL

**Q.** And the MIC ([4]; YU1200IFM4020, 72 h, 10 % horse serum, 3 days)?
**A.** 6.25 µg/mL

**Q.** What about the MIC ([4]; YU1200IFM4020, 72 h, 30 % horse serum, 3 days) of the same molecule?
**A.** 25 µg/mL

**Q.** And the MIC ([4]; YU1200IFM4020, 168 h, 0 % horse serum, 7 days)?
**A.** 3.13 µg/mL

**Q.** And the MIC ([4]; YU1200IFM4020, 168 h, 10 % horse serum, 7 days)?
**A.** 6.25 µg/mL

**Q.** What about the MIC ([4]; YU1200IFM4020, 168 h, 30 % horse serum, 7 days) of the same molecule?
**A.** 25 µg/mL

**Q.** And the MIC ([5]; AHU3071, 72 h, 0 % horse serum, 3 days)?
**A.** 3.13 µg/mL

**Q.** And the MIC ([5]; AHU3071, 72 h, 10 % horse serum, 3 days)?
**A.** 6.25 µg/mL

**Q.** What about the MIC ([5]; AHU3071, 72 h, 30 % horse serum, 3 days) of the same molecule?
**A.** 12.5 µg/mL

**Q.** What about the MIC ([5]; AHU3071, 168 h, 0 % horse serum, 7 days) of the same molecule?
**A.** 3.13 µg/mL

**Q.** And the MIC ([5]; AHU3071, 168 h, 10 % horse serum, 7 days)?
**A.** 6.25 µg/mL

**Q.** What about the MIC ([5]; AHU3071, 168 h, 30 % horse serum, 7 days) of the same molecule?
**A.** 12.5 µg/mL

**Q.** What about the MIC ([6]; AHU3654, 72 h, 0 % horse serum, 3 days) of the same molecule?
**A.** 25 µg/mL

**Q.** What about the MIC ([6]; AHU3654, 72 h, 10 % horse serum, 3 days) of the same molecule?
**A.** 25 µg/mL

**Q.** What about the MIC ([6]; AHU3654, 72 h, 30 % horse serum, 3 days) of the same molecule?
**A.** 50 µg/mL

**Q.** What about the MIC ([6]; AHU3654, 168 h, 0 % horse serum, 7 days) of the same molecule?
**A.** 25 µg/mL

**Q.** And the MIC ([6]; AHU3654, 168 h, 10 % horse serum, 7 days)?
**A.** 25 µg/mL

**Q.** And the MIC ([6]; AHU3654, 168 h, 30 % horse serum, 7 days)?
**A.** 50 µg/mL

**Q.** And the MIC (Candida Krusei AHU 3993; 72 h, 0 % horse serum, 3 days)?
**A.** > 100 µg/mL

**Q.** And the MIC (Candida Krusei AHU 3993; 72 h, 10 % horse serum, 3 days)?
**A.** 200 µg/mL

**Q.** And the MIC (Candida Krusei AHU 3993; 72 h, 30 % horse serum, 3 days)?
**A.** 100 µg/mL

**Q.** What about the MIC (Candida Krusei AHU 3993; 168 h, 0 % horse serum, 7 days) of the same molecule?
**A.** > 100 µg/mL

**Q.** And the MIC (Candida Krusei AHU 3993; [7])?
**A.** > 200 µg/mL

**Q.** What about the MIC (Candida Krusei AHU 3993; [8]) of the same molecule?
**A.** 100 µg/mL
